Entries after “also recorded” stand apart in the source; their conditions may differ.
Experiments:
hPSCs = assay: Optimization of CHIR99021 concentration for hPSC-CM generation (morphology, cTnT FACS); type: cell-based, human; conditions: tested 0, 6, 9, 12 μM; morphology and cTnT expression on D10
Excerpt: To optimize the culture conditions for CM generation from hPSCs (iPSCs and ESCs), cells were propagated on Matrigel-coated culture plates with maintenance medium, as described in the Section 4. Subsequently, hPSCs underwent differentiation for 10 days, followed by maturation for another 10 days or longer if needed (Figure 1a). For the initial induction of mesodermal differentiation, CHIR99021, a GSK3 inhibitor and Wnt activator, was used. On the first day of hPSC cm generation, hPSCs were treated with CHIR99021 at various concentrations (0, 6, 9, and 12 μM) (Figure 1b). The optimal concentration of CHIR99021 for the efficient generation of hPSC-CMs was determined to be 9 μM based on their morphology and cTnT expression (Figure 1b). For further differentiation into cardiac progenitor cells, Wnt-C59, a small molecule that inhibits Wnt palmitoylation, was added to the differentiation medium from D2 to D4. For late differentiation into contracting CMs from D6 to D10, insulin was added. Contracting CMs were observed between D9 and D11 (Supplementary Figure S1). During differentiation over 10 days, there were changes in the expression levels of CM-related genes (Figure 1c). […] Moreover, GATA4, NKX2.5, TBX5, and ISL1, transcription factors that play key roles in cardiac development, were highly expressed on D10 compared with D0 or D5, indicating the induction of cardiac lineage cells. […]

iPSC-CMs [1] = assay: Cardiotoxicity test: spontaneous calcium oscillations (FLIPR, EarlyTox dye); conditions: for EC50: Homo sapiens, iPSC-CM, read-out: EC50 (beating rate, calcium oscillations); for effect on beating rate: iPSC-CMs, concentration-dependent
Procedure: Spontaneous calcium oscillations in iPSC-CMs were measured using the FLIPR system in the absence or presence of test compounds. […] This approach allowed the evaluation of proarrhythmic effects of drug candidates based on calcium dynamics occurring within the iPSC-CMs.
Figure 4 Utilization of hPSC-CMs as a platform for high-throughput testing of the cardiotoxicity and effectiveness of drugs. Spontaneous calcium oscillations in iPSC-CMs were measured using the FLIPR system in the absence or presence of test compounds. (a,b) Cardiotoxicity test. […] (b) Testing of the compounds known for their adverse effects in humans. […] (c,d) Efficacy test. (c) iPSC-CMs (c1) and ESC-CMs (c2) were treated with 200 nM ATX-II, a late inward sodium current inducer, which produces atrial arrhythmias mimicking the LQT3 phenotype, followed by exposure to a test compound. […] Error bars, mean ± SEM (N = 3). Asterisks, *—statistically significant differences (Student’s t-test; p < 0.05).
Spontaneous calcium transients in contracting CMs were monitored using the FLIPR Tetra® High Throughput Cellular Screening System (Molecular Devices). hPSC-CMs were plated on the Matrigel-coated wells (8 × 10^4 cells per well) of a 96-well plate. Confluency was monitored after 2 days, and the strong synchronous contractions of cells were confirmed prior to the cardiac calcium oscillation assay. Experiments were conducted after 7–10 days of cell culture. The EarlyTox^TM Cardiotoxicity Kit (Molecular Devices) was used; a calcium-sensitive fluorescent dye was added to the plate according to the manufacturer’s instructions and incubated for 2 h at 37 °C. […] Calcium oscillations were measured at 20, 40, and 60 min after treatment. The acquired data were analyzed for beat frequency and peak width at 10% amplitude using ScreenWorks Peak Pro software version 2.0 (Molecular Devices).

ESC-CMs = assay: Efficacy test: ATX-II-induced LQT3 phenotype, calcium oscillations in ESC-CMs; type: cell-based, human; conditions: for average peak width after ATX-II, reversal by test compound: ESC-CMs pretreated with 200 nM ATX-II
Excerpt: (§1) (a,b) Cardiotoxicity test. […] (c,d) Efficacy test. […] Error bars, mean ± SEM (N = 3).
(§2) For the efficacy test (Figure 4c), iPSC-CMs and ESC-CMs were generated as previously mentioned and used to screen effective compounds for reversing arrhythmia phenotype.

iPSC-CMs [2] = assay: Efficacy test: ATX-II-induced LQT3 phenotype, calcium oscillations in iPSC-CMs; type: cell-based, human; conditions: for average peak width after ATX-II, reversal by test compound: iPSC-CMs pretreated with 200 nM ATX-II
Excerpt: as §1, §2

Row | Compound | EC50 (iPSC-CMs [1]) | effect on beating rate (iPSC-CMs [1]) | other results
1 | Cc1c[nH]c(-c2cnc(NCCNc3ccc(C#N)cn3)nc2-c2ccc(Cl)cc2Cl)n1 [CHIR99021] | – | – | optimal concentration for efficient generation of hPSC-CMs (hPSCs): 9 µM
2 | COc1ccc([C@@H]2Sc3ccccc3N(CCN(C)C)C(=O)[C@@H]2OC(C)=O)cc1 [diltiazem] | 5.97 µM | increased the beating rate | –
3 | CN(CCOc1ccc(NS(C)(=O)=O)cc1)CCc1ccc(NS(C)(=O)=O)cc1 [dofetilide] | 0.018 µM | decrease in the beating rate | –
4 | O=C(NCC1CCCCN1)c1cc(OCC(F)(F)F)ccc1OCC(F)(F)F (centres unmarked) [flecainide] | 17.5 µM | inhibited the beating rates | –
5 | CC(C)c1nc(CN(C)C(=O)N[C@H](C(=O)N[C@@H](Cc2ccccc2)C[C@H](O)[C@H](Cc2ccccc2)NC(=O)OCc2cncs2)C(C)C)cs1 [ritonavir] | 6.09 µM | inhibited the beating rates | –
6 | CCCN1CCCC[C@H]1C(=O)Nc1c(C)cccc1C [ropivacaine] | – | – | average peak width after ATX-II, reversal by test compound (ESC-CMs): restored to the level of untreated control cells; also recorded: significantly reverted the average peak width to the level of untreated control cells; average peak width after ATX-II, reversal by test compound (iPSC-CMs [2]): restored to the level of untreated control cells; also recorded: significantly reverted the average peak width to the level of untreated control cells
7 | CCCN(CCc1cccs1)[C@H]1CCc2c(O)cccc2C1 [rotigotine] | – | – | average peak width after ATX-II, reversal by test compound (ESC-CMs): restored to the level of untreated control cells; also recorded: significantly reverted the average peak width to the level of untreated control cells; average peak width after ATX-II, reversal by test compound (iPSC-CMs [2]): restored to the level of untreated control cells; also recorded: significantly reverted the average peak width to the level of untreated control cells
8 | COc1ccc(CCN(C)CCCC(C#N)(c2ccc(OC)c(OC)c2)C(C)C)cc1OC (centres unmarked) [verapamil] | 0.522 µM | increased the beating rate | –
9 | ATX-II: late inward sodium current inducer known to produce atrial arrhythmias, mimicking LQT3 | – | – | average peak width (effect of ATX-II itself) (ESC-CMs; 200 nM, ESC-CMs): higher average peak widths; average peak width (effect of ATX-II itself) (iPSC-CMs [2]; 200 nM, iPSC-CMs): higher average peak widths

Source: paper PMC11277421, “Advancing Cardiovascular Drug Screening Using Human Pluripotent Stem Cell-Derived Cardiomyocytes” (International Journal of Molecular Sciences, 2024)
